In patent US6737383B1, “Herbicidal oxadiazolidines” (priority 1999, dated 2004):

Legend:
bedstraw = assay: Test B pre/postemergence bedstraw; assay type: in vivo, Galium aparine
How it was run: (§1)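 Response is a visual 0-to-10 score relative to untreated plants, where 0 means no effect and 10 means complete control, taken twelve to sixteen days after application. Treatments went onto soil at planting and onto foliage of 1- to 4-leaf plants, using a surfactant-containing non-phytotoxic solvent.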

velvetleaf = assay: Test B pre/postemergence velvetleaf; assay type: in vivo, Abutilon theophrasti
How it was run: as §1

crabgrass = assay: Test B pre/postemergence crabgrass; assay type: in vivo, Digitaria sanguinalis
How it was run: as §1

giant foxtail = assay: Test B pre/postemergence giant foxtail; assay type: in vivo, Setaria faberii
How it was run: as §1

morningglory = assay: Test B pre/postemergence morningglory; assay type: in vivo, Ipomoea hederacea
How it was run: as §1

wild oat = assay: Test B pre/postemergence wild oat; assay type: in vivo, Avena fatua
How it was run: as §1

rice = assay: Test B flood test rice; assay type: in vivo, Oryza sativa
How it was run: (§2)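 Flood test on plants grown to the 2-leaf stage; treated plants kept in greenhouse twelve to sixteen days, then visually rated against controls on a 0 (no effect) to 10 (complete control) scale.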

duck salad = assay: Test B flood test duck salad; assay type: in vivo, Heteranthera limosa
How it was run: as §2

rape = assay: Test B pre/postemergence rape; assay type: in vivo, Brassica napus
How it was run: as §1

purple nutsedge = assay: Test B pre/postemergence purple nutsedge; assay type: in vivo, Cyperus rotundus
How it was run: as §1

corn = assay: Test B pre/postemergence corn; assay type: in vivo, Zea mays
How it was run: as §1

blackgrass = assay: Test B pre/postemergence blackgrass; assay type: in vivo, Alopecurus myosuroides
How it was run: as §1

smallflower flatsedge = assay: Test B flood test smallflower flatsedge; assay type: in vivo, Cyperus difformis
How it was run: as §2

soybean = assay: Test B pre/postemergence soybean; assay type: in vivo, Glycine max
How it was run: as §1

wheat = assay: Test B pre/postemergence wheat; assay type: in vivo, Triticum aestivum
How it was run: as §1

surinam grass = assay: Test B pre/postemergence surinam grass; assay type: in vivo, Brachiaria decumbens
How it was run: as §1

[1] = Postemergence, Rate 62 g/ha, scale 0 to 10, 0 is no effect, 10 is complete control
[2] = Postemergence, Rate 250 g/ha, scale 0 to 10, 0 no effect, 10 complete control
[3] = Preemergence, Rate 62 g/ha, scale 0 to 10 (0 no effect, 10 complete control)
[4] = Preemergence, Rate 125 g/ha, scale 0 to 10 (0 no effect, 10 complete control)
[5] = Preemergence, Rate 250 g/ha, scale of 0 to 10 where 0 is no effect and 10 is complete control
[6] = Preemergence, Rate 500 g/ha, scale 0 (no effect) to 10 (complete control)
[7] = Rate 125 g/ha, Postemergence, scale 0 to 10, 0 no effect, 10 complete control
[8] = Rate 500 g/ha, Postemergence, scale 0 to 10, 0 no effect, 10 complete control
[9] = Rate 62 g/ha, headed Pre-emergence (flood test species), scale 0 to 10 (0 no effect, 10 complete control)
[10] = Rate 125 g/ha, Pre-emergence, flood test species, scale 0 to 10 where 0 is no effect and 10 is complete control
[11] = Rate 250 g/ha, headed Pre-emergence (flood test species), scale 0 to 10 (0 no effect, 10 complete control)
[12] = Rate 500 g/ha, headed Pre-emergence (flood test species), scale 0 to 10 (0 no effect, 10 complete control)

CCN(Cc1ccccc1)C(=O)n1oc(=O)n(-c2ccccc2C)c1=O [Compound 71]
0: Bedstraw plant response rating (bedstraw; [1]) | Bedstraw plant response rating (bedstraw; [2]) | Bedstraw plant response rating (bedstraw; [3]) | Plant response rating, Bedstraw (bedstraw; [4]) | Plant response rating, Bedstraw (bedstraw; [5]) | Bedstraw plant response rating (bedstraw; [6]) | Bedstraw plant response rating (bedstraw; [7]) | Bedstraw plant response rating (bedstraw; [8]) | Velvetleaf plant response rating (velvetleaf; [1]) | Velvetleaf plant response rating (velvetleaf; [2]) | Velvetleaf plant response rating (velvetleaf; [3]) | Plant response rating, Velvetleaf (velvetleaf; [4]) | Plant response rating, Velvetleaf (velvetleaf; [5]) | Velvetleaf plant response rating (velvetleaf; [6]) | Velvetleaf plant response rating (velvetleaf; [7]) | Velvetleaf plant response rating (velvetleaf; [8]) | Crabgrass plant response rating (crabgrass; [1]) | Crabgrass plant response rating (crabgrass; [2]) | Crabgrass plant response rating (crabgrass; [3]) | Plant response rating, Crabgrass (crabgrass; [4]) | Plant response rating, Crabgrass (crabgrass; [5]) | Crabgrass plant response rating (crabgrass; [6]) | Crabgrass plant response rating (crabgrass; [7]) | Crabgrass plant response rating (crabgrass; [8]) | Giant foxtail plant response rating (giant foxtail; [1]) | Giant foxtail plant response rating (giant foxtail; [2]) | Giant foxtail plant response rating (giant foxtail; [3]) | Plant response rating, Giant foxtail (giant foxtail; [4]) | Plant response rating, Giant foxtail (giant foxtail; [5]) | Giant foxtail plant response rating (giant foxtail; [6]) | Giant foxtail plant response rating (giant foxtail; [7]) | Giant foxtail plant response rating (giant foxtail; [8]) | Morningglory plant response rating (morningglory; [1]) | Morningglory plant response rating (morningglory; [2]) | Morningglory plant response rating (morningglory; [3]) | Plant response rating, Morningglory (morningglory; [4]) | Plant response rating, Morningglory (morningglory; [5]) | Morningglory plant response rating (morningglory; [6]) | Morningglory plant response rating (morningglory; [7]) | Morningglory plant response rating (morningglory; [8]) | Wild oats plant response rating (wild oat; [1]) | Wild oats plant response rating (wild oat; [2]) | Wild oats plant response rating (wild oat; [3]) | Plant response rating, Wild oats (wild oat; [4]) | Plant response rating, Wild oats (wild oat; [5]) | Wild oats plant response rating (wild oat; [6]) | Wild oats plant response rating (wild oat; [7]) | Wild oats plant response rating (wild oat; [8]) | Rice plant response rating (rice; [9]) | Rice plant response rating (rice; [10]) | Rice plant response rating (rice; [11]) | Plant response rating, Rice (rice; [12]) | Ducksalad plant response rating (duck salad; [9]) | Ducksalad plant response rating (duck salad; [10]) | Ducksalad plant response rating (duck salad; [11]) | Plant response rating, Ducksalad (duck salad; [12]) | Rape plant response rating (rape; [1]) | Rape plant response rating (rape; [2]) | Rape plant response rating (rape; [3]) | Plant response rating, Rape (rape; [4]) | Plant response rating, Rape (rape; [5]) | Rape plant response rating (rape; [6]) | Rape plant response rating (rape; [7]) | Rape plant response rating (rape; [8]) | Nutsedge plant response rating (purple nutsedge; [1]) | Nutsedge plant response rating (purple nutsedge; [2]) | Nutsedge plant response rating (purple nutsedge; [3]) | Plant response rating, Nutsedge (purple nutsedge; [4]) | Plant response rating, Nutsedge (purple nutsedge; [5]) | Nutsedge plant response rating (purple nutsedge; [6]) | Nutsedge plant response rating (purple nutsedge; [7]) | Nutsedge plant response rating (purple nutsedge; [8]) | Corn plant response rating (corn; [1]) | Corn plant response rating (corn; [2]) | Corn plant response rating (corn; [3]) | Plant response rating, Corn (corn; [4]) | Plant response rating, Corn (corn; [5]) | Corn plant response rating (corn; [6]) | Corn plant response rating (corn; [7]) | Corn plant response rating (corn; [8]) | Blackgrass plant response rating (blackgrass; [1]) | Blackgrass plant response rating (blackgrass; [2]) | Blackgrass plant response rating (blackgrass; [3]) | Plant response rating, Blackgrass (blackgrass; [4]) | Plant response rating, Blackgrass (blackgrass; [5]) | Blackgrass plant response rating (blackgrass; [6]) | Blackgrass plant response rating (blackgrass; [7]) | Blackgrass plant response rating (blackgrass; [8]) | S. Flatsedge plant response rating (smallflower flatsedge; [9]) | S. Flatsedge plant response rating (smallflower flatsedge; [10]) | S. Flatsedge plant response rating (smallflower flatsedge; [11]) | Plant response rating, S. Flatsedge (smallflower flatsedge; [12]) | Soybean plant response rating (soybean; [1]) | Soybean plant response rating (soybean; [2]) | Soybean plant response rating (soybean; [3]) | Plant response rating, Soybean (soybean; [4]) | Plant response rating, Soybean (soybean; [5]) | Soybean plant response rating (soybean; [6]) | Soybean plant response rating (soybean; [7]) | Soybean plant response rating (soybean; [8]) | Wheat plant response rating (wheat; [1]) | Wheat plant response rating (wheat; [2]) | Wheat plant response rating (wheat; [3]) | Plant response rating, Wheat (wheat; [4]) | Plant response rating, Wheat (wheat; [5]) | Wheat plant response rating (wheat; [6]) | Wheat plant response rating (wheat; [7]) | Wheat plant response rating (wheat; [8]) | B. signalgrass plant response rating (surinam grass; [1]) | B. signalgrass plant response rating (surinam grass; [2]) | B. signalgrass plant response rating (surinam grass; [3]) | Plant response rating, B. signalgrass (surinam grass; [4]) | Plant response rating, B. signalgrass (surinam grass; [5]) | B. signalgrass plant response rating (surinam grass; [6]) | B. signalgrass plant response rating (surinam grass; [7]) | B. signalgrass plant response rating (surinam grass; Rate 500 g/ha, Postemergence, scale of 0 to 10 where 0 is no effect and 10 is complete control)
